What was measured:
patients = test: Clinical observations in treated patients; type: in vivo, human
Source text: It is imperative that patients get as quickly to the positive zone as possible. […] Anxiety is a major contributor to chronic inflammation, which decreases BDNF and the continued loss of synaptic connections.

depression = details: after a single administration; cited from earlier work

| Structure (SMILES) | duration of positive effects of a series of infusions (patients; IV ketamine alone, series of infusions (e.g., six)) | relief of anxiety compared with depression (patients; patients, ketamine treatments alone) | begin of antidepressant effects post-infusion (depression) [min] | loss of superiority to placebo post-infusion (depression) [days] | peak of antidepressant effects (depression) | time the patient continued to stay sober (patients; Patient 3 (alcoholic), patient attributes it to the addition of oxytocin) [months] | response of the patient's anxiety with oxytocin compared with ketamine treatment alone (patients; Patient 10 (PTSD, Depression, and Anxiety)) | recovery from anxiety compared with ketamine infusions alone (patients; patients, addition of oxytocin treatment) | ketamine experience when oxytocin is administered prior to the ketamine treatment (patients; patients, oxytocin before ketamine) | recovery from depression and anxiety compared with ketamine alone (patients; patients, oxytocin prior to ketamine treatment) |
| --- | --- | --- | --- | --- | --- | --- | --- | --- | --- | --- |
| CNC1(c2ccccc2Cl)CCCCC1=O (racemic) [ketamine, Ketamine (racemic)] | one month to several (e.g., 4-6) months | a lot slower | 40 | 10 to 12 | approximately 24 h | – | – | – | – | – |
| CC[C@H](C)[C@@H]1NC(=O)[C@H](Cc2ccc(O)cc2)NC(=O)[C@@H](N)CSSC[C@@H](C(=O)N2CCC[C@H]2C(=O)N[C@@H](CC(C)C)C(=O)NCC(N)=O)NC(=O)[C@H](CC(N)=O)NC(=O)[C@H](CCC(N)=O)NC1=O [oxytocin] | – | – | – | – | – | 18 | much quicker | much quicker recovery | much more calm and euphoric ketamine experience | recovering much more quickly |

Reference: patent US20250099532A1, “METHODS OF TREATMENT USING OXYTOCIN” (Belnap Pharmaceuticals, LLC, priority 2022, published 2025)
